The subject of assay [1] is Wistar rats. Briefly: DNBS induced distal colitis in rats. The note with it: DNBS rats. The format is in vivo. As for the experimental part:
Groups of 3 male Wistar rats (180±20 grams) fasted for 24 hours before 2,4-dinitrobenzene sulfonic acid (DNBS) or saline challenge were used. Distal colitis was induced by intra-colonic instillation of 0.5 mL of an ethanolic solution of DNBS (30 mg in 0.5 mL of a 30% ethanol in saline solution) after which 2 mL of air was injected through the cannula to ensure that the solution remained in the colon. The volume used was 0.1 mL per injection of 2 and 20 mg/mL of 7-oxodehydroepiandrosterone in a liquid formulation, was administered by subcutaneous injection once a day for 6 days. The formulation contained […] of 7-oxodehydroepiandrosterone in a non-aqueous suspension that contained 2% benzyl alcohol w/v, 0.1% Brij 96 w/v and equal volumes of PEG 300 and propylene glycol. Concentrations of 2 mg/mL and 20 mg/mL were obtained by diluting the […] with vehicle that lacked the active substance.
The first dose was given 30 minutes after DNBS challenge. Sulfasalazine (30 mg/mL in 2% Tween 80 in distilled water) was administered orally (PO) once a day (10 mL/kg/day) for 7 days, the first two doses beginning 24 hours and 2 hours before DNBS challenge. The presence of diarrhea was recorded daily by examining the anal area. Animals were fasted for 24 hours prior to being sacrificed. Animals were sacrificed on day 7 or day 8 and their colons were removed and weighed. Before removal of the colon, signs of adhesion between the colon and other organs were recorded. Also, the presence of ulcerations was noted after weighing of each colon. The “net” change of colon-to-body weight (BW) ratio was normalized relative to saline-challenged baseline group. A 30% decrease in “net” colon-to-body weight ratio was considered significant.
A total of five studies were conducted. Data from the first study are reported in this report. The 7-oxodehydroepiandrosterone at 2 and 20 mg/mL, decreased the net colon-to-body weight ratio by 19 and by 14% relative to vehicle-treated group, respectively. […] The formula 1 compound 3β,7β,17β-trihydroxyandrost-5-ene (AET) was administered by subcutaneous injections of 2 and 20 mg/day for 5 or 6 days, with the first dose injected 30 minutes post-DNBS challenge. The AET formulation was the same as the 7-oxodehydroepiandrosterone formulation, except that AET replaced 7-oxodehydroepiandrosterone. AET decreased the net colon-to-body weight ratio by 15% and 21% relative to controls (see the table below). Animals treated with AET (20 mg/kg) had no diarrhea. […] The same formulations containing BrEA hemihydrate (100 mg/mL) or dehydroepiandrosterone (20 mg/mL) decreased the net colon-to-body weight ratio by 21 and 3%, respectively relative to controls.

Assay [2] relates to Sprague Dawley rats. Briefly: TNBS induced distal colitis in rats. The format is in vivo. The settings on record: day 14. How it is done: In another protocol formula 1 compounds were used in a similar animal model. Groups of 10 male Sprague Dawley rats (250-300 grams) were fasted for 24 hours before 2,4,6-trinitrobenzene sulfonic acid (TNBS) or saline challenge. This model presents a severe challenge to the animal's immune system. On Day 0, the rats were lightly anesthetized and a catheter inserted rectally into the colon such that the tip was 8 cm proximal to the anus. Distal colitis was induced by intra-colonic instillation of 0.5 mL of an ethanolic solution of TNBS (60 mg/mL ethanol 50% in water). The test substance, 7-oxodehydroepiandrosterone 20 mg/mL in vehicle or vehicle control was administered by subcutaneous injection (0.1 mL/injection) once a day for 6 days, the first dose being given 30 minutes after TNBS challenge. Sulfasalazine (30 mg/mL in 2% Tween 80 in distilled water) or vehicle control was administered orally (PO) once a day (10 mL/kg/day) for 7 days, the first two doses beginning 24 hours and 2 hours before […] challenge. Signs of diarrhea were recorded daily by examining the anal area. Animals were fasted for 24 hours prior to sacrifice on day 14 and the colon was removed and weighed. After gross observations of colonic tissues, 3 samples were taken from regions approximately 1, 3, and 8 cm proximal to the anus. If gross ulcers or inflammation were present, at least one sample was taken from the affected region. Before removal of the colon, signs of adhesion between the colon and other organs were recorded. […] Body weight, colon-to-body-weight ratio, and damage scores were assessed. Visible damage was scored on a 1-5 scale as follows: 0=No damage; 1=Localized hyperemia but no ulcers; 2=linear ulcers with no significant inflammation; 3=Linear ulcers with inflammation at one site; 4=Two or more sites of ulceration and/or inflammation; 5=Two or more major sites of ulceration and inflammation or one major site of ulceration and inflammation extending more than 1 cm along the length of the colon. […]

For assay [3], the system named is BALB/c mice. Briefly: Reversal of immunosenescence: HBsAg vaccination of aged mice. Type of assay: in vivo. How it is done:
Healthy aged (20-month) or immunologically-mature (3-month) BALB/c mice were vaccinated with hepatitis B surface antigen (HBsAg) (2 μg; Recombivax-HB; Merck) and Alum (2.75 μg). The aged mice were vaccinated with the antigen and also received a single subcutaneous injection of either 0.3 mg or 3.0 mg of 3β,7β,17β-trihydroxyandrost-5-ene (AET), BrEA or 7-oxodehydroepiandrosterone, dehydroepiandrosterone or the vehicle (placebo control). The AET, BrEA hemihydrate or dehydroepiandrosterone was present in a formulation that contained 60 mg/mL of the compound suspended in 0.1% w/v carboxymethyl cellulose sodium in 0.9% saline. 7-Oxodehydroepiandrosterone was in a formulation that contained 60 mg/mL of the compound suspended in 0.1% w/v gum arabic in 0.9% saline. A concentration of 6 mg/mL was obtained by diluting the 60 mg/mL formulation with vehicle that lacked the active substance.
Blood samples were collected 14, 21 and 34 days after treatment and the sera were analyzed by ELISA to determine the concentration of HBsAg-specific IgG (total IgG). In addition, samples obtained on day 21 were analyzed to determine the concentration of HBsAg-specific IgG1 and IgG2a subclasses. The results summarized below were average values obtained with blood samples collected 21 days after vaccination of groups of 8 mice. Subcutaneous injection was performed after shaving the hair from the thighs of each mouse. The injected volume was 50 μL for compound (3.0 mg or 0.3 mg) or placebo, and for vaccine preparation. The vehicle control consisted of carboxymethylcellulose (0.5%) in saline (0.9%). Antibody titers were determined by ELISA.
Secondary antibody response. Later, 42 days after the initial exposure to HBsAg, serum samples were taken from the mice described in the previous section and these were tested for anti-HBsAg IgG. At this time-point, vaccine-specific IgG titers were either low or undetectable. Three days later (45 days after first vaccination), the mice were injected again with HBsAg in Alum, but this time, none of the mice received immunosteroid (secondary vaccination). Serum samples collected 7 days and 14 days after the second exposure to HBsAg vaccine were assayed for anti-HBsAg antibody. […] In contrast, in aged mice that had received no immunosteroid with the first HBsAg injection, low levels of anti-HBsAg were detectable, and only in 4 of the 8 mice in this group was antibody detectable. Increases in anti-HBsAg titers were seen following secondary vaccination in aged animals that had been treated with immunosteroid in conjunction with the first HBsAg exposure. The anti-HBsAg antibody titer in serum increased following secondary vaccination in all 8 mice in the groups of aged mice that were treated at primary vaccination with the higher dose (3 mg/mouse) of AET, BrEA or 7-oxodehydroepiandrosterone, or with dehydroepiandrosterone (0.3 mg/mouse). In those aged mice that had received the lower dose (0.3 mg/mouse) of AET, BrEA or 7-oxodehydroepiandrosterone at vaccination, an intermediate response was seen, with 6 of the 8 mice producing detectable anti-HBsAg in response to secondary vaccination.

In assay [4] the target is chloroquine resistant KI P. falciparum. Type of assay: cell-based. How it is done:
Triplicate readings were made for each concentration.
The testing was carried out according to the procedure of Desjardins et al. 1979. After 30 hr culture at 37 degrees C., the same microtiter plates from schizont inhibition assays with another triplicate wells were pulsed with ^3H-hypoxanthine for overnight. The cell suspensions were washed twice on millipore glass fiber filter with Millipore filter apparatus. […] The activity of the drug was measured by plotting DPM against concentration of drug.

As to `C[C@]12CC[C@H](O)CC1=CC(=O)[C@@H]1[C@@H]2CC[C@]2(C)C(=O)CC[C@@H]12` [7-oxodehydroepiandrosterone], in assay [1] (first study, groups of 3), the adhesions result was “Adhesions were absent in all three tested animals” and the colonic ulceration is reported as 1/3. For the same compound, the diarrhea entry in assay [1] (7-oxodehydroepiandrosterone 2 and 20 mg/mL s.c., sulfasalazine PO, AET 20 mg/kg) is given as “All animals had diarrhea”. Moreover, in assay [2], the “histopathology: inflammation / lesion frequency and severity versus controls” value is on record as “exacerbated the inflammation”. In assay [3] (groups of 8, 0.3 mg/mouse at primary vaccination), the “mice producing anti-HBsAg in response to secondary vaccination” value turned out to be 6 mice. Moreover, in assay [3] (groups of 8, 3 mg/mouse at primary vaccination), the “mice with increased anti-HBsAg antibody titer following secondary vaccination” value is reported as 8 mice.
`C[C@]12CC[C@H](O)CC1=CC[C@@H]1[C@@H]2CC[C@]2(C)C(=O)[C@H](Br)C[C@@H]12` [DHEA-Br, 16α-bromodehydro-epiandrosterone]: the IC50 entry in assay [4] is reported as “˜25.0 μg/mL”.
Regarding `C[C@]12CC[C@H](O)C[C@@H]1CC[C@@H]1[C@@H]2CC[C@]2(C)C(=O)[C@H](Cl)C[C@@H]12` [16-chloroepiandrosterone, 16α-chloroepiandrosterone], the IC50 result in assay [4] is given as “˜9.25 μg/mL”.

For the origin of these results see US20070275936A1, “Formulations and Treatment Methods” (priority 1998, published 2007).
